The values that follow come from patent publication US6821981B2, “Azaheterocyclylmethyl derivatives of 2,3-dihydro-1,4-dioxino[2,3-f]-quinoline as 5-HT1A antagonists” (Wyeth, priority 2001, dated 2004).

One data set has as its target T1, human 5-HT1A receptors (Homo sapiens, UniProt P08908).
T1 construct: expressed in transfected cells; host or cells: CHO cells
T1 sequence (P08908 1-422): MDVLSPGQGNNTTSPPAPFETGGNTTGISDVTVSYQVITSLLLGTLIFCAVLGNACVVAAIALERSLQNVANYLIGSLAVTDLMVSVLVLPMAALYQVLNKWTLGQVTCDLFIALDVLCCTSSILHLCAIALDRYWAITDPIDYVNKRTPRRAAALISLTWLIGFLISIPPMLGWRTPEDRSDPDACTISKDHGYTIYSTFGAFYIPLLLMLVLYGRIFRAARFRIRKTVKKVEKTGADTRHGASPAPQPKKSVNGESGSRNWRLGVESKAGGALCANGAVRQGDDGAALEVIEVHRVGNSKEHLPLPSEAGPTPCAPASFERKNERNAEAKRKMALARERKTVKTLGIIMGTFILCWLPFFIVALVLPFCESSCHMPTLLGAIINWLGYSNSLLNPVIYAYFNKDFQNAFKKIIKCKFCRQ
Briefly: [3H] 8-OH-DPAT displacement from 5-HT1A receptor. Format: binding. The text has this:
High affinity for the serotonin 5-HT1A receptor was established by testing the claimed compound's ability to displace [^3H] 8-OH-DPAT (dipropylaminotetralin) from the 5-HT1A serotonin receptor following a modification of the procedure of Hall et al., J. Neurochem. 44, 1685 (1985) which utilizes CHO cells stably transfected with human 5-HT1A receptors.

Data set [1] addresses T2, cloned human 5-HT1A receptors (Homo sapiens, UniProt P08908).
T2 construct: expressed in transfected cells
T2 sequence (P08908 1-422): T1 sequence (P08908 1-422)
Briefly: 35S-GTPγS binding assay, antagonist activity versus 8-OH-DPAT. Format: biochemical. The conditions noted are these: for 5-HT1A Function Imax (maximum inhibitory effect): value in parentheses after IC50. The procedure:
Antagonist activity at 5-HT1A receptors was established by using a ^35S-GTPγS binding assay similar to that used by Lazareno and Birdsall (Br. J. Pharmacol. 109: 1120, 1993), in which the test compound's ability to affect the binding of ^35S-GTPγS to membranes containing cloned human 5-HT1A receptors was determined. Agonists produce an increase in binding whereas antagonists produce no increase but rather reverse the effects of the standard agonist 8-OH-DPAT. The test compound's maximum inhibitory effect is represented as the Imax, while its potency is defined by the IC50.

Where [2] appears, read: CHO cells stably transfected with human 5-HT1A receptors, [3H] 8-OH-DPAT, read-out: 5-HT1A Receptor Affinity KI.
[3] abbreviates: reversal of the effects of the standard agonist 8-OH-DPAT on 35S-GTPγS binding, read-out: 5-HT1A Function IC50.

Structures can show the parent of a compound that is named as a salt. Where two headings read alike, the source gives them in different places.

As for `Cc1ccc2c3c(ccc2n1)OCC(CN1CCC2(CC1)C(=O)NCN2c1ccccc1)O3` (stereo not shown) (as salt: fumarate) (hydrate or solvate) [Example 2, 8-{[8-Methyl-2,3-dihydro[1,4]dioxino[2,3-f]quinolin-2-yl]methyl}-1-phenyl-1,3,8-triazaspiro[4.5]decan-4-one], the melting point (as a rule, the temperature, or range, at which the solid turns liquid) was 199 to 201 °C. `Cc1ccc2c3c(ccc2n1)OC[C@H](CN1CCC(n2c(=O)[nH]c4ccccc42)CC1)O3` (as salt: fumarate) (hydrate or solvate) [Example 3, 1-(1-{[8-Methyl-2,3-dihydro[1,4]dixino[2,3-f]quinlin-2-yl]methyl}piperidin-4-yl)-1,3-dihydro-2H-benzimidazol-2-one] had a melting point of 194 to 196 °C. `Cc1ccc2c3c(ccc2n1)OCC(CN1CCC(C(=O)c2ccc(F)cc2)CC1)O3` (stereo not shown) (as salt: fumarate) (hydrate or solvate) [Example 5, (4-Fluorophenyl)(1-{[8-methyl-2,3-dihydro[1,4]dioxino[2,3-f]quinolin-2-yl]methyl}-4-piperidinyl)methanone] yielded a melting point of 206 to 207 °C. `Cc1ccc2c3c(ccc2n1)OCC(CN1CCC(O)(c2cccc(C(F)(F)F)c2)CC1)O3` (stereo not shown) (as salt: fumarate) (hydrate or solvate) [Example 6, 1-{[8-Methyl-2,3-dihydro[1,4]dioxino[2,3-f]quinolin-2-yl]methyl}-4-[3-(trifluoromethyl)phenyl]-4-piperidinol]: the melting point is 133 to 135 °C.

Turning to `Cc1ccc2c3c(ccc2n1)OCC(CN1CC=C(c2ccccc2)CC1)O3` (stereo not shown) (as salt: fumarate) (hydrate or solvate) [Example 8, 8-Methyl-2-{[4-phenyl-3,6-dihydro-1(2H)-pyridinyl]methyl}-2,3-dihydro[1,4]dioxino[2,3-f]quinoline], the melting point was 185 to 188 °C. Take `CCc1ccc2c3c(ccc2n1)OCC(CN1CCC2(CC1)C(=O)NCN2c1ccccc1)O3` (stereo not shown) (as salt: fumarate) (hydrate or solvate) [Example 9, 8-{[8-Ethyl-2,3-dihydro[1,4]dioxino[2,3-f]quinolin-2-yl]methyl}-1-phenyl-1,3,8-triazaspiro[4.5]decan-4-one]: the melting point fell in the range of 207 to 209 °C. `O=C1NCN(c2ccccc2)C12CCN(CC1COc3ccc4ncccc4c3O1)CC2` (stereo not shown) (as salt: fumarate) [Example 1, 8-[2,3-Dihydro[1,4]dioxino[2,3-f]quinolin-2-ylmethyl]-1-phenyl-1,3,8-triazaspiro[4.5]decan-4-one] yielded a melting point of 170 °C.

Consider `Cc1ccc2c3c(ccc2n1)OCC(CN1CCCCC1)O3` (stereo not shown) (as salt: hydrochloride) (hydrate or solvate) [Example 4, 8-Methyl-2-(piperidin-1-ylmethyl)-2,3-dihydro[1,4]dioxino[2,3-f]quinoline], for which the melting point was 278 to 280 °C. With `Cc1ccc2c3c(ccc2n1)OCC(CN1CCC(C#N)(c2ccccc2)CC1)O3` (stereo not shown) (as salt: salt) [Example 7, 1-{[8-Methyl-2,3-dihydro[1,4]dioxino[2,3-f]quinolin-2-yl]methyl}-4-phenyl-4-piperidinecarbonitrile], the melting point was in the range of 185 to 187 °C. With `O=C1NCN(c2ccccc2)C12CCN(CC1COc3ccc4ncccc4c3O1)CC2` (stereo not shown) [Example 1, 8-[2,3-Dihydro[1,4]dioxino[2,3-f]quinolin-2-ylmethyl]-1-phenyl-1,3,8-triazaspiro[4.5]decan-4-one], the Ki (usually a measure of affinity in units of concentration, obtained from inhibition or displacement) on human 5-HT1A receptors (setting [2]) is 1.44 nM. For the same compound, the concentration for half-maximal inhibition (IC50) – broadly, the concentration at which inhibition is half-maximal – in data set [1] (setting [3]) came to 55 nM. Moreover, the “5-HT1A Function Imax (maximum inhibitory effect)” value in data set [1] was 100. For the compound `Cc1ccc2c3c(ccc2n1)OCC(CN1CCC2(CC1)C(=O)NCN2c1ccccc1)O3` (stereo not shown) [Example 2, 8-{[8-Methyl-2,3-dihydro[1,4]dioxino[2,3-f]quinolin-2-yl]methyl}-1-phenyl-1,3,8-triazaspiro[4.5]decan-4-one], the Ki on human 5-HT1A receptors (setting [2]) was 1.79 nM. Besides, the IC50 in data set [1] (setting [3]) amounted to 64 nM. Further, the “5-HT1A Function Imax (maximum inhibitory effect)” value in data set [1] is on record as 100. Taken in the same sequence, the figures for `Cc1ccc2c3c(ccc2n1)OC[C@H](CN1CCC(n2c(=O)[nH]c4ccccc42)CC1)O3` [Example 3, 1-(1-{[8-Methyl-2,3-dihydro[1,4]dixino[2,3-f]quinlin-2-yl]methyl}piperidin-4-yl)-1,3-dihydro-2H-benzimidazol-2-one] were 3.08 nM, 66 nM and 85.0.

Regarding `Cc1ccc2c3c(ccc2n1)OCC(CN1CCCCC1)O3` (stereo not shown) [Example 4, 8-Methyl-2-(piperidin-1-ylmethyl)-2,3-dihydro[1,4]dioxino[2,3-f]quinoline], the inhibition constant Ki at human 5-HT1A receptors (setting [2]) is 51 nM. Also, in data set [1] (setting [3]), the concentration for half-maximal inhibition (IC50) turned out to be 483 nM. Besides, the “5-HT1A Function Imax (maximum inhibitory effect)” value in data set [1] is 100. As for `Cc1ccc2c3c(ccc2n1)OCC(CN1CCC(C(=O)c2ccc(F)cc2)CC1)O3` (stereo not shown) [Example 5, (4-Fluorophenyl)(1-{[8-methyl-2,3-dihydro[1,4]dioxino[2,3-f]quinolin-2-yl]methyl}-4-piperidinyl)methanone], the Ki at human 5-HT1A receptors (setting [2]) was determined as 18.5 nM. Take `Cc1ccc2c3c(ccc2n1)OCC(CN1CCC(O)(c2cccc(C(F)(F)F)c2)CC1)O3` (stereo not shown) [Example 6, 1-{[8-Methyl-2,3-dihydro[1,4]dioxino[2,3-f]quinolin-2-yl]methyl}-4-[3-(trifluoromethyl)phenyl]-4-piperidinol]: the inhibitory constant (Ki) at human 5-HT1A receptors (setting [2]) came to 6.94 nM. For the compound `Cc1ccc2c3c(ccc2n1)OCC(CN1CCC(C#N)(c2ccccc2)CC1)O3` (stereo not shown) [Example 7, 1-{[8-Methyl-2,3-dihydro[1,4]dioxino[2,3-f]quinolin-2-yl]methyl}-4-phenyl-4-piperidinecarbonitrile], at human 5-HT1A receptors, the Ki came to 76.1 nM. Moreover, in data set [1], the half-inhibitory concentration (IC50) was found to be 445 nM and the “5-HT1A Function Imax (maximum inhibitory effect)” value was found to be 50. Consider `Cc1ccc2c3c(ccc2n1)OCC(CN1CC=C(c2ccccc2)CC1)O3` (stereo not shown) [Example 8, 8-Methyl-2-{[4-phenyl-3,6-dihydro-1(2H)-pyridinyl]methyl}-2,3-dihydro[1,4]dioxino[2,3-f]quinoline], for which the inhibition constant (Ki) on human 5-HT1A receptors (setting [2]) amounted to 7.91 nM.

Consider `CCc1ccc2c3c(ccc2n1)OCC(CN1CCC2(CC1)C(=O)NCN2c1ccccc1)O3` (stereo not shown) [Example 9, 8-{[8-Ethyl-2,3-dihydro[1,4]dioxino[2,3-f]quinolin-2-yl]methyl}-1-phenyl-1,3,8-triazaspiro[4.5]decan-4-one], for which, at human 5-HT1A receptors (setting [2]), the inhibitory constant (Ki) worked out at 2.79 nM.
